Series [1] is described as follows: Lipophilicity, log D of the compound at pH 7.4. The note with it: buffer. It counts as physicochemical.
A further series concerns Liver microsome. In words: Intrinsic clearance in human liver microsomes. The format is ADME.

In ChEMBL document CHEMBL3785081 (J Med Chem, 2016) one finds logD and CLint data, which are given here for 15 molecules.

Each structure is given as a SMILES string.

As usually defined, the logD is lipophilicity at a set pH, counting ionised and neutral species. The low end stands for a more hydrophilic compound, the high end for a more lipophilic compound. For the molecule `C=CC(=O)N1C[C@H](COc2nc(Nc3cnn(C)c3)nc3[nH]ccc23)[C@@H](C(F)(F)F)C1`, the logD in series [1] came out at 2.7. The molecule further showed a CLint in the series with Liver microsome of 26 µL/min/g. The like results for `C=CC(=O)N1C[C@H](COc2nc(Nc3cnn(C)c3)nc3[nH]cc(Cl)c23)[C@@H](O)C1` were, in that order, 2 and 12 µL/min/g. In series [1], `C=CC(=O)Nc1cccc(Oc2nc(Nc3ccn(C)n3)nc3[nH]ccc23)c1` displayed a logD of 3. In the series with Liver microsome, the CLint worked out at 11 µL/min/g. The like results for `C=CC(=O)N1C[C@H](COC)[C@@H](COc2nc(Nc3cnn(C)c3)nc3[nH]cc(Cl)c23)C1` were, in that order, 2.9 and 23 µL/min/g. In the same order, the values of `C=CC(=O)N1C[C@H](CO)[C@@H](COc2nc(Nc3cnn(C)c3)nc3[nH]cc(Cl)c23)C1` are 2.3 and 13 µL/min/g. The molecule `C=CC(=O)N1C[C@H](COc2nc(Nc3cnn(C)c3)nc3[nH]cc(Cl)c23)[C@@H](C(F)(F)F)C1` returned a logD in series [1] of 3. For the same molecule, the CLint with Liver microsome came out at 37 µL/min/g. `C#CCCn1cc(Nc2nc(OC[C@H]3CN(C(=O)C=C)C[C@@H]3OC)c3c(Cl)c[nH]c3n2)cn1` came in with a logD in series [1] of 3.

`C=CC(=O)N1CC[C@@H](COc2nc(Nc3cnn(C)c3)nc3[nH]cc(Cl)c23)C1` had a logD in series [1] of 2.91. In addition, in the series with Liver microsome, the CLint came out at 45 µL/min/g. `C=CC(=O)Nc1cccc(Oc2nc(Nc3cnn(C)c3)nc3[nH]ccc23)c1` gave a logD in series [1] of 3.2. Further, in the series on Liver microsome, the CLint was 66 µL/min/g.

As for `C=CC(=O)N1C[C@@H](COc2nc(Nc3cnn(C)c3)nc3[nH]cc(Cl)c23)[C@H](OC)C1`, in series [1], the logD was determined as 2.4. This molecule yielded a CLint in the series with Liver microsome of 24 µL/min/g. Take `C=CC(=O)N1C[C@H](COc2nc(Nc3cnn(C)c3)nc3[nH]cc(Cl)c23)[C@@H](F)C1`: in series [1], the pH-dependent lipophilicity (logD) was 2.7. The same molecule gave a CLint in the series on Liver microsome of 28 µL/min/g.

`C=CC(=O)N1CC[C@@H](COc2nc(Nc3cnn(C)c3)nc3[nH]ccc23)C1` gave a logD in series [1] of 2.1. For the same molecule, the CLint in the series on Liver microsome came out at 56 µL/min/g.

`C#CCOc1cc2ncnc(Nc3ccc(F)c(Cl)c3)c2cc1NC(=O)C=C` returned a logD in series [1] of 4. With `C=CC(=O)Nc1cccc(Oc2nc(Nc3ccc(N4CCN(C)CC4)cc3)nc3[nH]ccc23)c1`, the logD in series [1] worked out at 2.7. In the series on Liver microsome, the CLint is 20 µL/min/g.

Take `C=CC(=O)N1C[C@H](COc2nc(Nc3cnn(C)c3)nc3[nH]cc(Cl)c23)[C@@H](OC)C1` [PF-06459988]: the logD in series [1] stood at 2.5. In the series on Liver microsome, this molecule came in with a CLint of 18 µL/min/g.
